Results reported in US4016158A, “Cephalosporin derivatives” (Roussel-UCLAF, priority 1971, dated 1977).
≈ marks a conversion by molar mass, not a printed value. Where two headings read alike, the source gives them in different places.

What was measured:
Escherichia coli 152 = experiment: MIC (Table II); type: cell-based; conditions: read-out: minimum inhibition concentration
Method: (§1) The antibiotic activity was determined by the diffusion method in a gelose medium at a pH of 7. The following Table expresses the minimum concentration of inhibition in mcg/ml (CMl) for the products against different microbial strains.
(§2) Using the same procedure as in Table I, the minimum inhibition concentration in mcg/ml was determined against different microbial strains with L(-) cis 7-[D(-)-α-aminophenylacetamido]-3-isopropyl-3-cepheme-4-carboxylic acid (product A) of Example 9.

Escherichia coli 1751 = experiment: MIC (Table II); type: cell-based; conditions: read-out: minimum inhibition concentration
Method: as §1, §2

Escherichia coli 3019 = experiment: MIC (Table II); type: cell-based; conditions: read-out: minimum inhibition concentration
Method: as §1, §2

Escherichia coli 5003 = experiment: MIC (Table II); type: cell-based; conditions: read-out: minimum inhibition concentration
Method: as §1, §2

Escherichia coli 51 = experiment: MIC (Table II); type: cell-based; conditions: read-out: minimum inhibition concentration
Method: as §1, §2

Escherichia coli 5369 = experiment: MIC (Table II); type: cell-based; conditions: read-out: minimum inhibition concentration
Method: as §1, §2

Escherichia coli 8497 = experiment: MIC (Table II); type: cell-based; conditions: read-out: minimum inhibition concentration
Method: as §1, §2

Escherichia coli 9927 = experiment: MIC (Table II); type: cell-based; conditions: read-out: minimum inhibition concentration
Method: as §1, §2

Escherichia coli 9957 = experiment: MIC (Table II); type: cell-based; conditions: read-out: minimum inhibition concentration
Method: as §1, §2

Escherichia coli Taylor = experiment: MIC (Table II); type: cell-based; conditions: read-out: minimum inhibition concentration
Method: as §1, §2

Proteus mirabilis 1668 = experiment: MIC (Table II); type: cell-based; conditions: read-out: minimum inhibition concentration
Method: as §1, §2

Proteus mirabilis 6194 = experiment: MIC (Table II); type: cell-based; conditions: read-out: minimum inhibition concentration
Method: as §1, §2

Proteus mirabilis 8065 = experiment: MIC (Table II); type: cell-based; conditions: read-out: minimum inhibition concentration
Method: as §1, §2

[1] = tested on: Salmonella typhimurium 420; experiment: MIC (Table II); type: cell-based; conditions: Salmonella enterica, read-out: minimum inhibition concentration
Method: as §1, §2

Shigella flexneri = experiment: MIC (Table II); type: cell-based; conditions: read-out: minimum inhibition concentration
Method: as §1, §2

[2] = tested on: Staphylococcus aureus 017; experiment: MIC (Table II); type: cell-based; conditions: read-out: minimum inhibition concentration
Method: as §1, §2

[3] = tested on: Staphylococcus aureus 397; experiment: MIC (Table II); type: cell-based; conditions: read-out: minimum inhibition concentration
Method: as §1, §2

[4] = tested on: Staphylococcus aureus 4546; experiment: MIC (Table II); type: cell-based; conditions: Staphylococcus aureus, 4546, read-out: minimum inhibition concentration
Method: as §1, §2

[5] = tested on: Staphylococcus aureus 5880; experiment: MIC (Table II); type: cell-based; conditions: read-out: minimum inhibition concentration
Method: as §1, §2

[6] = tested on: Staphylococcus aureus 8514; experiment: MIC (Table II); type: cell-based; conditions: read-out: minimum inhibition concentration
Method: as §1, §2

[7] = tested on: Staphylococcus aureus 9373; experiment: MIC (Table II); type: cell-based; conditions: Staphylococcus aureus, 9373, read-out: minimum inhibition concentration
Method: as §1, §2

[8] = tested on: Staphylococcus aureus 9482; experiment: MIC (Table II); type: cell-based; conditions: Staphylococcus aureus, 9482, read-out: minimum inhibition concentration
Method: as §1, §2

[9] = tested on: Staphylococcus aureus A8P; experiment: MIC (Table II); type: cell-based; conditions: read-out: minimum inhibition concentration
Method: as §1, §2

[10] = tested on: Staphylococcus aureus Frottis nasal; experiment: MIC (Table II); type: cell-based; conditions: read-out: minimum inhibition concentration
Method: as §1, §2

[11] = tested on: Streptococcus hemolyticus 905; experiment: MIC (Table II); type: cell-based; conditions: Streptococcus pyogenes, read-out: minimum inhibition concentration
Method: as §1, §2

Escherichia coli 4965 = experiment: bactericidal activity (germs still alive); type: cell-based; parameters: key: +++: all the germs are still alive; +: it remains some colonies; -: it does not remain any germ
Method: (§3) The bactericidal activity of product A was ascertained by determining the number of germs still alive after treatment with increasing doses of antibiotic on a liquid media. From the cultures in tubes having 72 hours (previously described method), were placed on agar in Petri dishes a constant sample of the last tube having grown and of the following tubes where no more growth in transillumination is observed. After 48 hours of culture in the Petri dishes, the number of colonies was ascertained.

[12] = tested on: Streptococcus hemolyticus 905; experiment: bactericidal activity (germs still alive); type: cell-based; parameters: key: +++: all the germs are still alive; +: it remains some colonies; -: it does not remain any germ
Method: as §3

oral toxicity in rats = conditions: rat, in vivo
Method: The oral toxicity of product A was determined on homogenous groups of 10 male rats weighing 100 to 110 g by administering orally a 0.25% by weight dispersion of product A in an aqueous suspension of carboxymethyl cellulose with an esophagus probe. […] The rats in the test were held in a place in which the air was filtered and sterilized by ultraviolet light and the temperature was held at 22° ± 1° C with a controlled humidity.

Question: With `CC(C)C1=C(C(=O)O)N2C(=O)[C@@H](NC(=O)[C@H](N)c3ccccc3)[C@H]2SC1` [Example 9, L (+) cis 7-[D (-)-α-aminophenylacetamido]-3-isopropyl-3-cepheme-4-carboxylic acid] as the compound, how does the MIC (Escherichia coli 152; 24h) read?
Answer: 30 µg/mL (≈ 79.9 µM)

Question: What about the MIC (Escherichia coli 152; 48h) of the same compound?
Answer: 30 µg/mL (≈ 79.9 µM)

Question: What about the MIC (Escherichia coli 152; 72h) of the same compound?
Answer: 40 µg/mL (≈ 107 µM)

Question: And the MIC (Escherichia coli 1751; 24h)?
Answer: 30 µg/mL (≈ 79.9 µM)

Question: And the MIC (Escherichia coli 1751; 48h)?
Answer: 30 µg/mL (≈ 79.9 µM)

Question: What about the MIC (Escherichia coli 1751; 72h) of the same compound?
Answer: 30 µg/mL (≈ 79.9 µM)

Question: What about the MIC (Escherichia coli 3019; 24h) of the same compound?
Answer: 30 µg/mL (≈ 79.9 µM)

Question: What about the MIC (Escherichia coli 3019; 48h) of the same compound?
Answer: 40 µg/mL (≈ 107 µM)

Question: What about the MIC (Escherichia coli 3019; 72h) of the same compound?
Answer: 40 µg/mL (≈ 107 µM)

Question: And the MIC (Escherichia coli 5003; 24h)?
Answer: 40 µg/mL (≈ 107 µM)

Question: What about the MIC (Escherichia coli 5003; 48h) of the same compound?
Answer: 40 µg/mL (≈ 107 µM)

Question: And the MIC (Escherichia coli 5003; 72h)?
Answer: 40 µg/mL (≈ 107 µM)

Question: And the MIC (Escherichia coli 51; 24h)?
Answer: 100 µg/mL (≈ 266 µM)

Question: What about the MIC (Escherichia coli 51; 48h) of the same compound?
Answer: > 100 µg/mL

Question: And the MIC (Escherichia coli 5369; 24h)?
Answer: 30 µg/mL (≈ 79.9 µM)

Question: And the MIC (Escherichia coli 5369; 48h)?
Answer: 40 µg/mL (≈ 107 µM)

Question: And the MIC (Escherichia coli 5369; 72h)?
Answer: 100 µg/mL (≈ 266 µM)

Question: And the MIC (Escherichia coli 8497; 24h)?
Answer: 100 µg/mL (≈ 266 µM)

Question: What about the MIC (Escherichia coli 8497; 48h) of the same compound?
Answer: 100 µg/mL (≈ 266 µM)

Question: And the MIC (Escherichia coli 8497; 72h)?
Answer: 100 µg/mL (≈ 266 µM)

Question: What about the MIC (Escherichia coli 9927; 24h) of the same compound?
Answer: 100 µg/mL (≈ 266 µM)

Question: What about the MIC (Escherichia coli 9927; 48h) of the same compound?
Answer: > 100 µg/mL

Question: And the MIC (Escherichia coli 9957; 24h)?
Answer: 40 µg/mL (≈ 107 µM)

Question: What about the MIC (Escherichia coli 9957; 48h) of the same compound?
Answer: 100 µg/mL (≈ 266 µM)

Question: And the MIC (Escherichia coli 9957; 72h)?
Answer: 100 µg/mL (≈ 266 µM)

Question: And the MIC (Escherichia coli Taylor; 24h)?
Answer: 40 µg/mL (≈ 107 µM)

Question: What about the MIC (Escherichia coli Taylor; 48h) of the same compound?
Answer: 40 µg/mL (≈ 107 µM)

Question: And the MIC (Escherichia coli Taylor; 72h)?
Answer: 60 µg/mL (≈ 160 µM)

Question: What about the MIC (Proteus mirabilis 1668; 24h) of the same compound?
Answer: 100 µg/mL (≈ 266 µM)

Question: What about the MIC (Proteus mirabilis 1668; 48h) of the same compound?
Answer: > 100 µg/mL

Question: What about the MIC (Proteus mirabilis 6194; 24h) of the same compound?
Answer: 60 µg/mL (≈ 160 µM)

Question: What about the MIC (Proteus mirabilis 6194; 48h) of the same compound?
Answer: 80 µg/mL (≈ 213 µM)

Question: And the MIC (Proteus mirabilis 6194; 72h)?
Answer: > 100 µg/mL

Question: And the MIC (Proteus mirabilis 8065; 24h)?
Answer: 60 µg/mL (≈ 160 µM)

Question: And the MIC (Proteus mirabilis 8065; 48h)?
Answer: > 100 µg/mL

Question: What about the MIC ([1]; 24h) of the same compound?
Answer: 60 µg/mL (≈ 160 µM)

Question: What about the MIC ([1]; 48h) of the same compound?
Answer: 60 µg/mL (≈ 160 µM)

Question: What about the MIC ([1]; 72h) of the same compound?
Answer: > 100 µg/mL

Question: What about the MIC (Shigella flexneri; 24h) of the same compound?
Answer: 20 µg/mL (≈ 53.3 µM)

Question: And the MIC (Shigella flexneri; 48h)?
Answer: 40 µg/mL (≈ 107 µM)

Question: What about the MIC (Shigella flexneri; 72h) of the same compound?
Answer: 40 µg/mL (≈ 107 µM)

Question: What about the MIC ([2]; 24h) of the same compound?
Answer: 2 µg/mL (≈ 5.33 µM)

Question: And the MIC ([2]; 48h)?
Answer: 5 µg/mL (≈ 13.3 µM)

Question: And the MIC ([2]; 72h)?
Answer: 15 µg/mL (≈ 40 µM)

Question: What about the MIC ([3]; 24h) of the same compound?
Answer: 2 µg/mL (≈ 5.33 µM)

Question: And the MIC ([3]; 48h)?
Answer: 5 µg/mL (≈ 13.3 µM)

Question: What about the MIC ([3]; 72h) of the same compound?
Answer: 10 µg/mL (≈ 26.6 µM)

Question: What about the MIC ([4]; 24h) of the same compound?
Answer: 0.6 µg/mL (≈ 1.6 µM)

Question: And the MIC ([4]; 48h)?
Answer: 2 µg/mL (≈ 5.33 µM)

Question: What about the MIC ([4]; 72h) of the same compound?
Answer: 3 µg/mL (≈ 7.99 µM)

Question: And the MIC ([5]; 24h)?
Answer: 2 µg/mL (≈ 5.33 µM)

Question: What about the MIC ([5]; 48h) of the same compound?
Answer: 3 µg/mL (≈ 7.99 µM)

Question: What about the MIC ([5]; 72h) of the same compound?
Answer: 10 µg/mL (≈ 26.6 µM)

Question: What about the MIC ([6]; 24h) of the same compound?
Answer: 1 µg/mL (≈ 2.66 µM)

Question: And the MIC ([6]; 48h)?
Answer: 2 µg/mL (≈ 5.33 µM)

Question: And the MIC ([6]; 72h)?
Answer: 2 µg/mL (≈ 5.33 µM)

Question: And the MIC ([7]; 24h)?
Answer: 1 µg/mL (≈ 2.66 µM)

Question: What about the MIC ([7]; 48h) of the same compound?
Answer: 3 µg/mL (≈ 7.99 µM)

Question: And the MIC ([7]; 72h)?
Answer: 5 µg/mL (≈ 13.3 µM)

Question: And the MIC ([8]; 24h)?
Answer: 1 µg/mL (≈ 2.66 µM)

Question: And the MIC ([8]; 48h)?
Answer: 2 µg/mL (≈ 5.33 µM)

Question: What about the MIC ([8]; 72h) of the same compound?
Answer: 2 µg/mL (≈ 5.33 µM)

Question: What about the MIC ([9]; 24h) of the same compound?
Answer: 1 µg/mL (≈ 2.66 µM)

Question: And the MIC ([9]; 48h)?
Answer: 3 µg/mL (≈ 7.99 µM)

Question: What about the MIC ([9]; 72h) of the same compound?
Answer: 10 µg/mL (≈ 26.6 µM)

Question: And the MIC ([10]; 24h)?
Answer: 2 µg/mL (≈ 5.33 µM)

Question: And the MIC ([10]; 48h)?
Answer: 3 µg/mL (≈ 7.99 µM)

Question: And the MIC ([10]; 72h)?
Answer: 10 µg/mL (≈ 26.6 µM)

Question: What about the MIC ([11]; 24h) of the same compound?
Answer: 2 µg/mL (≈ 5.33 µM)

Question: What about the MIC ([11]; 48h) of the same compound?
Answer: 2 µg/mL (≈ 5.33 µM)

Question: What about the MIC ([11]; 72h) of the same compound?
Answer: 2 µg/mL (≈ 5.33 µM)

Question: What about the germs still alive (Escherichia coli 4965; 30 μg/ml) of the same compound?
Answer: +++

Question: What about the germs still alive (Escherichia coli 4965; 40 μg/ml) of the same compound?
Answer: -

Question: And the germs still alive ([12]; 1 μg/ml)?
Answer: +++

Question: What about the germs still alive ([12]; 2 μg/ml) of the same compound?
Answer: -

Question: What about the germs still alive ([12]; 3 μg/ml) of the same compound?
Answer: -

Question: What about the LD50 (oral toxicity in rats) of the same compound?
Answer: > 800 mg/kg

Question: What about the abnormal symptoms (oral toxicity in rats; 800 mg/kg) of the same compound?
Answer: none of the rats presented any abnormal symptoms
